Square brackets hold non-standard residues; d marks the D form. Peptide text beside a SMILES is read from it. pGlu = O=C1CC[C@@H](C(=O)O)N1

For data set [1], the system named is HepG2-2.2.15 cells. Kind of data set: Cytotoxicity (dye uptake cell viability) in the HBV assay. The format is cell-based. To be noted: test peptide 10 micrograms per ml.
Data set [2] concerns CEM-SS cells. Kind of data set: Cytotoxicity (MTS cell viability) in the HIV-1 assay. To be noted: CEM-SS cells; test peptide 10 micrograms per ml; MTS.
Data set [3] relates to HIV-1IIIB. Kind of data set: HIV-1 antiviral assay (CPE reduction, MTS) in CEM-SS cells. To be noted: test peptide 10 micrograms per ml, 6 days post-infection.
The nature of data set [4]: Cytotoxicity (dye uptake cell viability) in the HBV assay. It is filed as cell-based. To be noted: human, HepG2-2.2.15 cells (stable line containing HBV ayw genome), test peptide 10 micrograms per ml.
The nature of data set [5]: Cytotoxicity testing in MRC-5 cells (CellTiter 96). It is filed as cell-based, human. To be noted: human, MRC-5 cells (embryonal lung fibroblasts), 6 days incubation, read-out: % Cell viability. The method, then: (§1) For cytotoxicity testing, MRC-5 cells were seeded at 2,500 cells/well in 96 well plates using growth medium. […] The following day, peptide was added and tested in duplicates. After a 6 days incubation period, cell viability was measured using CellTiter 96 Solution (Promega). Plates were incubated for additional 4 hours at 37° C.

The test system of data set [6] is MRSA. The data set is described as follows: Methicillin Resistant Staphylococcus Aureus (MRSA) assay. It is filed as cell-based. To be noted: MRSA growth; peptide 10 micrograms per ml. The method, then:
(§2) The antibacterial assay was conducted using clear, U-bottom 96-well microtiter plates. Cation-adjusted Mueller-Hinton Broth (MHB) was used for testing MRSA. The peptide of the invention (0.1 ml of each—10 micrograms per ml—) was dispensed into wells in duplicate. Then the wells were inoculated with 5×10^5 CFU/mL MRSA in 0.1 ml volume. For control purposes, each plate included 4 wells containing media without bacterial inoculum and 4 wells containing medium with inoculum but without peptide. The plates were incubated for 12 h at 37° C., and read visually 18-24 hours post-incubation. Growth control of MRSA was examined first to determine adequacy of media preparations and growth conditions. Acceptable growth is defined as ≧2 mm wide button of cells at the bottom of each sample well, or obvious turbidity in the culture supernatant. Test wells were examined and scored as positive/negative for activity. A positive score for activity is based on complete inhibition of macroscopic growth of the test MRSA.

Data set [7] concerns Pseudomonas aeruginosa. Kind of data set: Pseudomonas aeruginosa assay. The format is cell-based. To be noted: Pseudomonas aeruginosa growth; peptide 10 micrograms per ml. The method, then: as §2, with “Pseudomonas aeruginosa.” for “MRSA.”, “Pseudomonas aeruginosa” for “MRSA”
Data set [8] concerns Streptococcus pneumoniae. The data set is described as follows: Streptococcus pneumoniae assay. The format is cell-based. To be noted: Streptococcus pneumoniae growth; peptide 10 micrograms per ml. As for the experimental part: as §2, with “Streptococcus pneumoniae.” for “MRSA.”, “Streptococcus pneumoniae” for “MRSA”
Data set [9] is described as follows: Cytotoxicity (MTS cell viability) in the HIV-1 assay. To be noted: human, CEM-SS cells (uninfected drug cytotoxicity wells).
Data set [10] has as its system MRC-5 cells. Kind of data set: Cytotoxicity testing in MRC-5 cells (CellTiter 96). The format is cell-based, human. To be noted: 6 days incubation. The method, then:
as §1

In data set [11] the test system is HCMV strain AD169. Kind of data set: HCMV plaque reduction assay in MRC-5 cells. To be noted: HCMV in MRC-5 cells; peptide 10 micrograms per ml; 7-10 days.

On to `Nc1ccn([C@@H]2CS[C@H](CO)O2)c(=O)n1` [3TC], for which the “% Cell viability” value in data set [1] is on record as 95.8%.

With `Cc1cn([C@H]2C[C@H](N=[N+]=[N-])[C@@H](CO)O2)c(=O)[nH]c1=O` [AZT], the “% Cell viability” value in data set [2] is on record as 97%. Besides, the “% CPE reduction in HIV-1 infected CEM-SS cells” value in data set [3] was determined as 99%.

On to `CC[C@H](C)[C@H](NC(=O)[C@H](CCCCN)NC(=O)[C@@H]1CCCN1C(=O)[C@H](CCCNC(=N)N)NC(=O)[C@@H]1CCCN1C(=O)[C@@H]1CCCN1C(=O)[C@H](CC(C)C)NC(=O)CNC(=O)[C@@H]1CCC(=O)N1)C(=O)N1CCC[C@H]1C(=O)N1CCC[C@H]1C(=O)O` [Bradykinin potentiator B, Pyr-Gly-Leu-Pro-Pro-Arg-Pro-Lys-Ile-Pro-Pro-OH] ([pGlu]GLPPRPKIPP-OH), for which, in data set [4], the viability at 144 h, 10 micrograms per ml came out at 100%. In data set [5], the viability at 144 h was found to be 100%. The “% inhibition” value in data set [6], in data set [7] and in [8] was 0.0% in each case. In data set [9], the viability at 10 micrograms per ml came out at 100%.

`Nc1nc(O)c2ncn(COC(CO)CO)c2n1` [Ganciclovir]: in data set [10], the “% Cell viability” value turned out to be 100%. In addition, the “% plaque reduction” value in data set [11] came out at 100%.

For `CC(C)(C)NC(=O)[C@@H]1CN(Cc2cccnc2)CCN1C[C@@H](O)C[C@@H](Cc1ccccc1)C(=O)N[C@H]1c2ccccc2C[C@H]1O` [Indinavir], the “% Cell viability” value in data set [2] came to 93%. Further, the “% CPE reduction in HIV-1 infected CEM-SS cells” value in data set [3] is 100%.

The viability is a read-out of living cells in per cent, often relative to untreated cells. The term % inhibition denotes the change of the read-out against control, counted positive when it falls. Lower therefore signals a weak effect.
